Reference: patent US11396517B1, “Exo-aza spiro inhibitors of menin-MLL interaction” (Janssen Pharmaceutica NV, priority 2017, dated 2022)
Like-named read-outs stand apart in the source and are kept apart here.

How the values were obtained:
menin = target: T1, menin (Homo sapiens, UniProt O00255, T541A); experiment: Menin/MLL homogenous time-resolved fluorescence (HTRF) assay; format: binding
T1 construct: Menin (a.a. 1-610-6×his tag)
T1 sequence (O00255 with tags, fused parts or gaps T541A): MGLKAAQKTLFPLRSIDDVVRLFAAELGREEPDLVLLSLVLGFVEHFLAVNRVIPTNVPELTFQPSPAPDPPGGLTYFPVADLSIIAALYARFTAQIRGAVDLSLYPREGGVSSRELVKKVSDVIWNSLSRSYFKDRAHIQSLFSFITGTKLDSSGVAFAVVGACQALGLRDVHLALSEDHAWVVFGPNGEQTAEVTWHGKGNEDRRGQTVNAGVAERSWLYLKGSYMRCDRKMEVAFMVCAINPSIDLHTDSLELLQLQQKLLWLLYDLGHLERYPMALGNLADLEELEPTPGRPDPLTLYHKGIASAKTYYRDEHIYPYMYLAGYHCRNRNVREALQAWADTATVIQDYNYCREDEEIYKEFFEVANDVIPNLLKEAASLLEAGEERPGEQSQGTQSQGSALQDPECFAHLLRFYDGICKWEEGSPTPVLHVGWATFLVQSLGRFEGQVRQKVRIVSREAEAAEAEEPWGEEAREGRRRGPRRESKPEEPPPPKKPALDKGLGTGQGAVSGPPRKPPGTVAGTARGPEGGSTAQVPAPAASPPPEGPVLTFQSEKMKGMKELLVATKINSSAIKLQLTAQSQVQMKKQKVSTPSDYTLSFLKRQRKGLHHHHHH
How it was run: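 Displacement of 75 nM FITC-MBM1 from terbium-cryptate-labeled His-tagged menin 1-610 ([…]) was read as the 520/490 nm HTRF ratio. Compound (11-point, 3-fold series) got 5 min with menin before peptide, then 15 min at ambient; 0.5% DMSO, Tris pH 7.5.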

MV-4-11 [1] = experiment: Proliferation assay A (spheroid assay) MV-4-11; format: cell-based, human; details: MV-4-11 cells, 8 d, AUC of confluence against time, absolute IC50, read-out: (3a) Spheroid assay MV-4-11 (IC50(μM)) Assay A
Experimental: (§1) 3a) Proliferation Assay A
(§2) The anti-proliferative effect of menin/MLL protein/protein interaction inhibitor test compounds was assessed in human leukemia cell lines. The cell lines MV-4-11 and MOLM14 harbor MILL translocations and express the MILL fusion proteins MLL-AF4 and MLL-AF9, respectively, as well as the wildtype protein from the second allele. […] K562 was used as a control cell line containing two MLL wildtype alleles in order to exclude compounds that display general cytotoxic effects.
(§3) MV-4-11 and MOLM14 were cultured in RPMI-1640 (Sigma Aldrich) supplemented with 10% fetal bovine serum (HyClone), 2 mM L-glutamine (Sigma Aldrich) and 50 μg/ml gentamycin (Gibco). K562 were propagated in RPMI-1640 (Sigma Aldrich) supplemented with 20% fetal bovine serum (HyClone), 2 mM L-glutamine (Sigma Aldrich) and 50 μg/ml gentamycin (Gibco).
(§4) In order to assess the anti-proliferative effects, 1,500 MV-4-11, 300 MOLM14 or 750 K562 cells were seeded in 200 μl media per well in 96-well round bottom, ultra-low attachment plates (Costar, catalogue number 7007). Cell seeding numbers were chosen based on growth curves to ensure linear growth throughout the experiment. Test compounds were added at different concentrations and the DMSO content was normalized to 0.3%. Cells were incubated for 8 d at 37° C. and 5% CO2. Spheroid like growth was monitored in real-time by live-cell imaging (IncuCyteZOOM, Essenbio, 4× objective) acquiring one image every four hours for 8 d. Confluence (%) as a measure of spheroid size was determined using an integrated analysis tool.
(§5) In order to determine the cumulative effect of the test compounds over time, the area under the curve (AUC) in a plot of confluence against time was calculated. Confluence at the beginning of the experiment (t=0) was used as baseline for the AUC calculation.
(§6) Absolute IC50 values were calculated according to the following procedure: % Control=(AUC sample/AUC control)*100
(§7) AUC control mean AUC of control values (cells without compound/DMSO as vehicle control)
(§8) A non-linear curve fit was applied using the least squares (ordinary) fit method to the plot of % control versus compound concentration. Based on this, the absolute IC50 value (half maximal inhibitory concentration of the test compound causing an anti-proliferative effect of 50% relative to the vehicle control) was calculated.

MOLM14 [2] = experiment: Proliferation assay A (spheroid assay) MOLM14; format: cell-based, human; details: MOLM14 cells, 8 d, AUC of confluence against time, absolute IC50, read-out: (3a) Spheroid assay MOLM14 (IC50(μM)) Assay A
Experimental: as §1, §2, §3, §4, §5, §6, §7, §8

MV-4-11 [3] = experiment: Proliferation assay B (spheroid assay) MV-4-11; format: cell-based, human; details: Homo sapiens, MV4-11, 192 h, MV-4-11 cells, confluence at day 8, absolute IC50; read-out: (3b) Spheroid assay MV-4--11 (IC50(μM)) Assay B
How it was run: (§9)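 IC50 derived from % effect on day-8 imaged confluence, scaled between DMSO-treated cells (high) and 1 μM staurosporine (low), using a variable-slope fit constrained 0-100%. Cells seeded as spheroids in ultra-low-attachment plates and exposed to compound for 8 days, 0.3% DMSO.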

MOLM14 [4] = experiment: Proliferation assay B (spheroid assay) MOLM14; format: cell-based, human; details: Homo sapiens, MOLM-14, 192 h, MOLM14 cells, confluence at day 8, absolute IC50; read-out: (3b) Spheroid assay MOLM14 (IC50(μM)) Assay B
How it was run: as §9

[5] = location 2, read-out: (2) location 2 Menin HTRF assay (IC50 (nM))
[6] = location 1, read-out: (2) location 1 Menin HTRF assay (IC50 (nM))

Row | Compound | IC50 (menin; [5]) [nM] | IC50 (MV-4-11 [1]; Homo sapiens, MV4-11, 192 h) [µM] | IC50 (MOLM14 [2]; Homo sapiens, MOLM-14, 192 h) [µM] | IC50 (menin; [6]) [nM] | IC50 (MV-4-11 [1]) [µM] | IC50 (MOLM14 [2]) [µM] | IC50 (MV-4-11 [3]) [µM] | IC50 (MOLM14 [4]) [µM]
1 | FC(F)(F)Cc1cc2c(N3CC4(CCC(Nc5ccc6cc(C(F)(F)F)[nH]c6c5)C4)C3)ncnc2s1 (centres unmarked) [Compound 288] | 135 | > 3.75 | > 3.75 | – | – | – | – | –
2 | CNc1nc(N2CCC3(CC(Nc4ccc(CC#N)cc4)C3)C2)c2cc(CC(F)(F)F)sc2n1 (mixture of isomers) [Compound 390] | 14.6 | 2.84 | > 3.75 | – | – | – | – | –
3 | FC(F)(F)Cc1cc2c(N3CCC4(CCC(NCc5ccccc5)CC4)C3)ncnc2s1 (centres unmarked) [Compound 1] | 5 | 0.17 | 0.79 | 3.7 | – | – | – | –
4 | Nc1nc(N2CCC3(CC(Nc4ccc5[nH]c(=O)oc5c4)C3)C2)c2cc(CC(F)(F)F)sc2n1 (single isomer, unassigned) [Compound 386] | 86.8 | > 3.75 | 1.99 | – | – | – | – | –
5 | N#CCc1ccc(NC2CC3(CCN(c4ncnc5sc(CC(F)(F)F)cc45)C3)C2)c(F)c1 (centres unmarked) [Compound 63] | 44.3 | 1.01 | 1.13 | – | – | – | – | –
6 | N#CCc1ccc(NC2CCC3(CCN(c4ncnc5sc(CC(F)(F)F)cc45)C3)C2)cc1 (centres unmarked) [Compound 143] | 32.2 | 1.94 | 1.68 | – | – | – | – | –
7 | O=c1[nH]c2cc(CNC3CCC4(C3)CN(c3ncnc5sc(CC(F)(F)F)cc35)C4)ccc2o1 (single isomer, unassigned) [Compound 57] | 3.6 | – | – | – | 0.09 | 0.44 | – | –
8 | N#CCc1ccc(NC2CC3(CCN(c4ncnc5sc(CC(F)(F)F)cc45)C3)C2)cc1 (single isomer, unassigned) [Compound 306] | 78.2 | – | 3.82 | – | 2.25 | – | – | –
9 | CNC(=O)c1ccc(NC2CC3(CCN(c4ncnc5sc(CC(F)(F)F)cc45)C3)C2)cc1 (single isomer, unassigned) [Compound 94] | 3.6 | – | – | – | 0.04 | – | 0.06 | 0.44
10 | O=c1[nH]c2ccc(CNC3CCC4(C3)CN(c3ncnc5sc(CC(F)(F)F)cc35)C4)cc2o1 (centres unmarked) [Compound 15] | 2.2 | 0.25 | 1.29 | – | – | – | – | –
11 | O=c1[nH]c2ccc(CNC3CCC4(C3)CN(c3ncnc5sc(CC(F)(F)F)cc35)C4)cc2o1 (single isomer, unassigned) [Compound 55] | 7 | 0.28 | 1.27 | – | – | – | – | –

More lines, in order of falling IC50 (menin; [5]), values ahead:

Row | IC50 (menin; [5]) [nM] | IC50 (MV-4-11 [1]; Homo sapiens, MV4-11, 192 h) [µM] | IC50 (MOLM14 [2]; Homo sapiens, MOLM-14, 192 h) [µM] | IC50 (menin; [6]) [nM] | IC50 (MV-4-11 [1]) [µM] | IC50 (MOLM14 [2]) [µM] | IC50 (MV-4-11 [3]) [µM] | IC50 (MOLM14 [4]) [µM] | Compound
12 | 2050 | 5.11 | 4.45 | – | – | – | – | – | FC(F)(F)Cc1cc2c(N3CCC4(CCC(Nc5ccccc5)C4)C3)ncnc2s1 (single isomer, unassigned) [Compound 33]
13 | 94.2 | > 3.75 | – | – | – | – | > 3.75 | > 3.75 | N#CCc1ccc(NC2CCC3(C2)CN(c2nc(N)nc4sc(CC(F)(F)F)cc24)C3)cc1 (racemic) [Compound 387]
14 | 51.4 | > 3.75 | – | – | – | – | > 3.75 | > 3.75 | O=c1[nH]c2ccc(NC3CC4(CCN(c5ncnc6sc(CC(F)(F)F)cc56)C4)C3)cc2o1 (mixture of isomers) [Compound 322]
15 | 20.8 | 1.65 | 2.52 | – | – | – | – | – | N#CCc1ccc(NC2CC3(CCN(c4ncnc5sc(CC(F)(F)F)cc45)C3)C2)cc1F (mixture of isomers) [Compound 168]
16 | 7.2 | 1.36 | 3.51 | – | – | – | – | – | FC(F)(F)Cc1cc2c(N3CC4(CCC(NCc5cccc(-c6cc[nH]n6)c5)C4)C3)ncnc2s1 (centres unmarked) [Compound 17]
17 | 5.2 | – | > 3.75 | – | 0.53 | – | – | – | O=c1[nH]c2ccc(CNC3CCC4(C3)CN(c3ncnc5sc(CC(F)(F)F)cc35)C4)cc2[nH]1 (single isomer, unassigned) [Compound 108]
18 | 2.4 | 0.1 | 0.29 | – | – | – | – | – | CNc1nc(N2CCC3(CC(NCc4ccccc4)C3)C2)c2cc(CC(F)(F)F)sc2n1 (centres unmarked) [Compound 61]
19 | 0.8 | 0.39 | 2.3 | 5.9 | – | – | – | – | O=c1[nH]c2ccc(CNC3CCC4(C3)CN(c3ncnc5sc(CC(F)(F)F)cc35)C4)cc2[nH]1 (centres unmarked) [Compound 14]
